Source: BindingDB's records for doi:10.1038/sj.bjp.0702632 (Roche Bioscience, 1999)

Experiments:
[1] = biological target: 5-hydroxytryptamine receptor 2B (Homo sapiens, UniProt P41595)
[2] = biological target: 5-hydroxytryptamine receptor 2A (Homo sapiens, UniProt P28223)
[3] = biological target: 5-hydroxytryptamine receptor 6 (Homo sapiens, UniProt P50406)
[4] = biological target: T1, 5-hydroxytryptamine receptor 3A (Homo sapiens, UniProt P46098)
T1 sequence (P46098 whole entry): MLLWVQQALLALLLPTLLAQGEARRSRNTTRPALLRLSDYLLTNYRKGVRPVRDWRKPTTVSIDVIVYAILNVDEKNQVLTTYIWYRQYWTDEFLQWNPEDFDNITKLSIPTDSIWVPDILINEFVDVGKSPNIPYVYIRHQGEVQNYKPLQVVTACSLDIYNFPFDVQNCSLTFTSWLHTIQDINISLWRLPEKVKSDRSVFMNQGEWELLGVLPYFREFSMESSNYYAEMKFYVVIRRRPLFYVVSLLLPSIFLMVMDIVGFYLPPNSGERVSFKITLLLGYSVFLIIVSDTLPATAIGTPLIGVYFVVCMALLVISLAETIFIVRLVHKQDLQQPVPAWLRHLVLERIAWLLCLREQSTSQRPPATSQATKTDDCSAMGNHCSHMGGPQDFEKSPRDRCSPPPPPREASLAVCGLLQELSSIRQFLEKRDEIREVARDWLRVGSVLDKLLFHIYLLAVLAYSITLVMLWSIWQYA

[5] = biological target: 5-hydroxytryptamine receptor 5A (Homo sapiens, UniProt P47898)
[6] = biological target: T2, 5-hydroxytryptamine receptor 2C (Homo sapiens, UniProt P28335)
T2 sequence (P28335 whole entry): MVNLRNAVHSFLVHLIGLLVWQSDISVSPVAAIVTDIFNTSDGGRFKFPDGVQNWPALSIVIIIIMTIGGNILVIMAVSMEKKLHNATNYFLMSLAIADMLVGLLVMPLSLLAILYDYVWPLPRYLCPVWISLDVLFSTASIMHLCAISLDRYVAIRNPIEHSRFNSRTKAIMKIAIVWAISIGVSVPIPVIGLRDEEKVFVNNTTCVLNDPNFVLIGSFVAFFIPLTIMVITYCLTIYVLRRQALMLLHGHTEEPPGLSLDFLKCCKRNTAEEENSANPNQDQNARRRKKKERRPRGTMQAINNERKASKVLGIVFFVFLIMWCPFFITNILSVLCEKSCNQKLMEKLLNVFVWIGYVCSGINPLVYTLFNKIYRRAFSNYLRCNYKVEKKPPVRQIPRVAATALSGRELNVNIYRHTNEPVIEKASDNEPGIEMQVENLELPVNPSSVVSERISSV

Chain of 5-hydroxytryptamine receptor 2B (P41595 whole entry): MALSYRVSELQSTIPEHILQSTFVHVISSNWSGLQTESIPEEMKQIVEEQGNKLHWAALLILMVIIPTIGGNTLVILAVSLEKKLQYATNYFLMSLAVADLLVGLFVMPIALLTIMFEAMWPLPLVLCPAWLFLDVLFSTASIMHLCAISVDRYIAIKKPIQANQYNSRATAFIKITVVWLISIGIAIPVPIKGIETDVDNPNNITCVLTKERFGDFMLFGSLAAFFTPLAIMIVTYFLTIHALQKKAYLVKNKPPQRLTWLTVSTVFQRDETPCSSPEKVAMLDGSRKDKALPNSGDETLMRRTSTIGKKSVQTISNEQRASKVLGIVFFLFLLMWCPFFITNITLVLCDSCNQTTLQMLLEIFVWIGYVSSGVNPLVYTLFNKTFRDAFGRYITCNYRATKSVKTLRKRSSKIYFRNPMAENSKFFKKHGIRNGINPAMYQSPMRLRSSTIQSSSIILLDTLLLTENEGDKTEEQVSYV
Chain of 5-hydroxytryptamine receptor 5A (P47898 whole entry): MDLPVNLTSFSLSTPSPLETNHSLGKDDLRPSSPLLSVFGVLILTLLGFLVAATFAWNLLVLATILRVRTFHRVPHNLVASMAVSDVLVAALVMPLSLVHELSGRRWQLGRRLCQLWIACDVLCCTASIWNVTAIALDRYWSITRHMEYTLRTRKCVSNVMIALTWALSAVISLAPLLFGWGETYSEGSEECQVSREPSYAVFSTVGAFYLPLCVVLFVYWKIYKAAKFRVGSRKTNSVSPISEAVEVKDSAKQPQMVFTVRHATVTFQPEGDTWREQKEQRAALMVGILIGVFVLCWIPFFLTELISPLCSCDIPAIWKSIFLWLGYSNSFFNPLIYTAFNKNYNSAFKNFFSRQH
Chain of 5-hydroxytryptamine receptor 6 (P50406 whole entry): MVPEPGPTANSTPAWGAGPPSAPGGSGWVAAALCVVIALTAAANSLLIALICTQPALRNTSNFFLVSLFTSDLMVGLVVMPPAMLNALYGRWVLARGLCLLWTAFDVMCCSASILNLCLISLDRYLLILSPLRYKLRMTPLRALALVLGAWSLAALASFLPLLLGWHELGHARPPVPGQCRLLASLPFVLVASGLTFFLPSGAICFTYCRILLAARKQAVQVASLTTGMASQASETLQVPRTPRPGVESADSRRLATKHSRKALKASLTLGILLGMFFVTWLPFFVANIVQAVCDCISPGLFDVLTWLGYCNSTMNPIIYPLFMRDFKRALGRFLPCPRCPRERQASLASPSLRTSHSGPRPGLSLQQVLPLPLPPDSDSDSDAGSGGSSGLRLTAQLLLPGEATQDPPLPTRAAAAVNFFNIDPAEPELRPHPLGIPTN
Chain of 5-hydroxytryptamine receptor 2A (P28223 whole entry): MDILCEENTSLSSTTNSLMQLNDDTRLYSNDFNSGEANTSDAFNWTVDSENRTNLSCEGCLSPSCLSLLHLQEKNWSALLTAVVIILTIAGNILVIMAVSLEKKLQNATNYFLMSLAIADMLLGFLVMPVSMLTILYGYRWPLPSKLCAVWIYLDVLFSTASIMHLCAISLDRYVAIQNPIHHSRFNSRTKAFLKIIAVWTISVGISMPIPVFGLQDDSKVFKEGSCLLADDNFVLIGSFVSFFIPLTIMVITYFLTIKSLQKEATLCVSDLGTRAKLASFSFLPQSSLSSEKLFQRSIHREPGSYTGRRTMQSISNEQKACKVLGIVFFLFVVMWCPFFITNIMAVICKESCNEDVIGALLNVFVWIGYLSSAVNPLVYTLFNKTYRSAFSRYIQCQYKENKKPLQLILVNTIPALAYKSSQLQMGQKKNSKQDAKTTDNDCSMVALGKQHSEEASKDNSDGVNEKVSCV

`Cc1nc2sccn2c(=O)c1CCN1CCC(=C(c2ccc(F)cc2)c2ccc(F)cc2)CC1` was tested, and the Ki [1] was 1 nM.
For `CC(C)c1cc(-c2ccc(F)c3ccccc23)nc(N)n1` [RS-127445], the Ki [2] was 501 nM, the Ki [3] was 1000 nM and the Ki [1] was 0.32 nM. For the same compound, the Ki [4] was 1000 nM, the Ki [5] was 1000 nM and the Ki [6] was 398 nM.
In the case of `COc1ccc(CC2NCCc3c2[nH]c2ccccc32)cc1OC` (stereo not drawn) [LY-23728], the Ki [1] is reported as 1 nM.
